Data published in US20230102554A1 (GB002, INC., priority 2019, published 2023).

How the values were obtained:
[1] = molecular target: T1, Human PDGFRα, cytoplasmic domain (GST-PDGFRα) (Homo sapiens, UniProt P16234); assay: Human PDGFRα biochemical inhibition assay (off-chip Mobility Shift Assay)
T1 construct: made in house

[2] = molecular target: T2, Human PDGFRβ, cytoplasmic domain (GST-PDGFRβ) (Homo sapiens, UniProt P09619); assay: Human PDGFRβ biochemical inhibition assay (off-chip Mobility Shift Assay)
T2 construct: made in house
T2 sequence (P09619 with tags, fused parts or gaps): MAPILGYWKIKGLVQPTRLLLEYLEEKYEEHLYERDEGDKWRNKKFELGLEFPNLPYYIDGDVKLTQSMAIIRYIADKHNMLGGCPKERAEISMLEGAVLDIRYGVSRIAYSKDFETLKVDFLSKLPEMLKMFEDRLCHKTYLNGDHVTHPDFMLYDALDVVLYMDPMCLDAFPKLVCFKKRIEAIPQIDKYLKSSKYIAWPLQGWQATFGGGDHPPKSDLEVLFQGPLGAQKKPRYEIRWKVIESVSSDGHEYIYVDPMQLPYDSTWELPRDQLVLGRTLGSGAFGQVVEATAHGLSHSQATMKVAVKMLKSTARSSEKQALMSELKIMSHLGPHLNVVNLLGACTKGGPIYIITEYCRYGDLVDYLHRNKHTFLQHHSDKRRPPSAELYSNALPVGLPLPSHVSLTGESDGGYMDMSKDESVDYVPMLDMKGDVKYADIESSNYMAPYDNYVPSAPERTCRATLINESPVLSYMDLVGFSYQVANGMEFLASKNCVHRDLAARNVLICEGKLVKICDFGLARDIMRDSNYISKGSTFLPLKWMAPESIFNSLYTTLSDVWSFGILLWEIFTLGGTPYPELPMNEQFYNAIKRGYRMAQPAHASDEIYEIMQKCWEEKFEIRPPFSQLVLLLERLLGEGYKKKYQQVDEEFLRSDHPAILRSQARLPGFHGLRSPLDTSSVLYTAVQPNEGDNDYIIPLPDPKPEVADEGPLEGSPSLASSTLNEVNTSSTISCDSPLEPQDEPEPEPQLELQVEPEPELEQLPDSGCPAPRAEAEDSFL
Summary of the method: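 GST-tagged cytoplasmic domain (aa 557-1106) from baculovirus was incubated 1 h at room temperature with compound, CSKtide, ATP at Km and Mg²⁺ in HEPES buffer, pH 7.5. Phosphorylated and unphosphorylated peptide were separated by off-chip mobility shift, and the product ratio P/(P+S) gave percent inhibition.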

T1 sequence (P16234 550-1089 T674I): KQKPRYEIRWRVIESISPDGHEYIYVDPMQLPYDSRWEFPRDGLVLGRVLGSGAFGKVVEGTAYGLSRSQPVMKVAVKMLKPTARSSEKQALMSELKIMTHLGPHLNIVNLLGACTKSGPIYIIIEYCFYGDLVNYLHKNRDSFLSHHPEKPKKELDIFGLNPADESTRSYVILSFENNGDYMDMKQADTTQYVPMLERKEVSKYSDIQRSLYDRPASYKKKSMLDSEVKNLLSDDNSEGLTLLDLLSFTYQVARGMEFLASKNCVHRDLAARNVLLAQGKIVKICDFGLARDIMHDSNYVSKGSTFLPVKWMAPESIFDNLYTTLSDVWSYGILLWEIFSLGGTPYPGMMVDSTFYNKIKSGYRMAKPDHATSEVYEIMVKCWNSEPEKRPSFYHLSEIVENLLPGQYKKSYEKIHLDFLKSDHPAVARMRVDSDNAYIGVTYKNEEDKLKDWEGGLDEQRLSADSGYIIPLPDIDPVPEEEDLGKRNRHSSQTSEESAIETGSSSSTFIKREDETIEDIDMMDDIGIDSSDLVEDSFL

| Compound | IC50 [1] | IC50 [2] |
| --- | --- | --- |
| C[C@H](Nc1cnc2cnn(C)c2n1)c1cccc(NC(=O)[C@H]2C[C@H]2C(F)(F)F)c1 [Compound 53, (1S,2R)-N-(3-((S)-1-((1 methyl-1H-pyrazolo[3,4-d]pyrazin-6-yl)amino)ethyl)phenyl)-2-(trifluoromethyl)cyclopropane-1-carboxamide] | ≥ 1000 nM | ≥ 1000 nM |
| Cc1cncc(C(=O)Nc2cccc([C@H](C)Nc3cnc4ccc(C)cc4n3)c2)c1 [Compound 38, (S)-5-methyl-N-(3-(1-((7-methylquinoxalin-2-yl)amino)ethyl)phenyl)nicotinamide] | < 300 nM | < 300 nM |
| CCn1cc2ncc(N[C@@H](C)c3cc(NC(=O)c4ccc(C5CC5)nc4)ccc3F)nc2n1 [Compound 302, (S)-6-cyclopropyl-N-(3-(1-((2-ethyl-2H-pyrazolo[3,4-b]pyrazin-6-yl)amino)ethyl)-4-fluorophenyl)nicotinamide] | < 300 nM | < 300 nM |
| CCn1cc2ncc(N[C@@H](C)c3cc(NC(=O)c4cnc(C5CC5)s4)ccc3F)nc2n1 [Compound 309, (S)-2-cyclopropyl-N-(3-(1-((2-ethyl-2H-pyrazolo[3,4-b]pyrazin-6-yl)amino)ethyl)-4-fluorophenyl)thiazole-5-carboxamide] | < 300 nM | < 300 nM |
| COCCn1ccc2ncc(N[C@@H](C)c3cccc(NC(=O)c4cncc(C)c4)c3)nc21 [Compound 84, (S)-N-(3-(1-((5-(2-methoxyethyl)-5H-pyrrolo [2,3-b]pyrazin-3-yl)amino)ethyl)phenyl)-5-methylnicotinamide] | < 300 nM | 300 to 1000 nM |
| C[C@H](Nc1cnc2cnn(C)c2n1)c1cccc(NC(=O)c2ccn(CC(F)F)n2)c1 [Compound 158, (S)-1-(2,2-difluoroethyl)-N-(3-(1-((1-methyl-1H-pyrazolo[3,4-b]pyrazin-6-yl)amino)ethyl)phenyl)-1H-pyrazole-3-carboxamide] | < 300 nM | 300 to 1000 nM |
| CCn1cc2ncc(N[C@@H](C)c3cccc(NC(=O)c4cnc(-n5ccnc5)c(C)c4)c3)nc2n1 [Compound 334, (S)-N-(3-(1-((2-ethyl-2H-pyrazolo[3,4-b]pyrazin-6-yl)amino)ethyl)phenyl)-6-(1H-imidazol-1-yl)-5-methylnicotinamide] | < 300 nM | < 300 nM |
| CCn1cc2ncc(N[C@@H](C)c3cccc(NC(=O)c4cnc(N5CCCC5)s4)c3)nc2n1 [Compound 326, (S)-N-(3-(1-((2-ethyl-2H-pyrazolo[3,4-b]pyrazin-6-yl)amino)ethyl)phenyl)-2-(pyrrolidin-1-yl)thiazole-5-carboxamide] | < 300 nM | < 300 nM |
| C[C@H](Nc1cnc2cnn(C)c2n1)c1cccc(NC(=O)c2cncc(CO)c2)c1 [Compound 106, (S)-5-(hydroxymethyl)-N-(3-(1-((1-methyl-1H-pyrazolo[3,4-b]pyrazin-6-yl)amino)ethyl)phenyl)nicotinamide] | < 300 nM | 300 to 1000 nM |
| COc1ccc2cc(N[C@@H](C)c3cccc(NC(=O)c4cncc(C)c4)c3)cnc2c1 [Compound 28, (S)-N-(3-(1-((7-methoxyquinolin-3-yl)amino)ethyl)phenyl)-5-methylnicotinamide] | < 300 nM | < 300 nM |
| C[C@H](Nc1cnc2cnn(C)c2n1)c1cccc(NC(=O)c2cnn(C3CCC3)c2)c1 [Compound 151, (S)-1-cyclobutyl-N-(3-(1-((1-methyl-1H-pyrazolo[3,4-b]pyrazin-6-yl)amino)ethyl)phenyl)-1H-pyrazole-4-carboxamide] | < 300 nM | < 300 nM |
| Cc1cncc(C(=O)Nc2cccc([C@H](C)Nc3cnc4[nH]cc(C)c4n3)c2)c1 [Compound 15, (S)-5-methyl-N-(3-(1-((7-methyl-5H-pyrrolo[2,3-b]pyrazin-2-yl)amino)ethyl)phenyl)nicotinamide] | < 300 nM | < 300 nM |
| CCn1cc2ncc(N[C@@H](C)c3cccc(NC(=O)c4cnc(Br)s4)c3)nc2n1 [Compound 324, (S)-2-bromo-N-(3-(1-((2-ethyl-2H-pyrazolo[3,4-b]pyrazin-6-yl)amino)ethyl)phenyl)thiazole-5-carboxamide] | < 300 nM | 300 to 1000 nM |
| Cc1cncc(C(=O)Nc2cccc([C@H](C)Nc3cnc4cnn(CC(F)F)c4n3)c2)c1 [Compound 183, (S)-N-(3-(1-((1-(2,2-difluoroethyl)-1H-pyrazolo[3,4-b]pyrazin-6-yl)amino)ethyl)phenyl)-5-methylnicotinamide] | < 300 nM | 300 to 1000 nM |
| CCn1cc2ncc(N[C@@H](C)c3cccc(NC(=O)c4cnc(C(F)F)s4)c3)nc2n1 [Compound 319, (S)-2-(difluoromethyl)-N-(3-(1-((2-ethyl-2H-pyrazolo[3,4-b]pyrazin-6-yl)amino)ethyl)phenyl)thiazole-5-carboxamide] | < 300 nM | < 300 nM |
| C[C@H](Nc1cnc2cnn(C)c2n1)c1cccc(NC(=O)c2cncc(Br)c2)c1 [Compound 111, (S)-5-bromo-N-(3-(1-((1-methyl-1H-pyrazolo[3,4-b]pyrazin-6-yl)amino)ethyl)phenyl)nicotinamide] | < 300 nM | < 300 nM |
| Cc1cncc(C(=O)Nc2cccc([C@H](C)Nc3cncc4c3cnn4-c3cnn(C)c3)c2)c1 [Compound 21] | < 300 nM | < 300 nM |

The next lines start with the values.

| IC50 [1] | IC50 [2] | Compound |
| --- | --- | --- |
| < 300 nM | < 300 nM | CCn1cc2ncc(N[C@@H](C)c3cccc(NC(=O)c4ccc(CN5CCN(C)CC5)c(C(F)F)c4)c3)nc2n1 [Compound 504, (S)-3-(difluoromethyl)-N-(3-(1-((2-ethyl-2H-pyrazolo[3,4-b]pyrazin-6-yl)amino)ethyl)phenyl)-4-((4-methylpiperazin-1-yl)methyl)benzamide] |
| 300 to 1000 nM | ≥ 1000 nM | CCn1cc2ncc(N[C@@H](C)c3cc(NC(=O)Cc4ccc(C(C)(C)F)cn4)ccc3F)nc2n1 [Compound 683, (S)-N-(3-(1-((2-ethyl-2H-pyrazolo[3,4-b]pyrazin-6-yl)amino)ethyl)-4-fluorophenyl)-2-(5-(2-fluoropropan-2-yl)pyridin-2-yl)acetamide] |
| 300 to 1000 nM | ≥ 1000 nM | CCn1cc2ncc(N[C@@H](C)c3cccc(NC(=O)Cc4cncc(F)c4)c3)nc2n1 [Compound 623, (S)-N-(3-(1-((2-ethyl-2H-pyrazolo[3,4-b]pyrazin-6-yl)amino)ethyl)phenyl)-2-(5-fluoropyridin-3-yl)acetamide] |
| < 300 nM | < 300 nM | CCn1cc2ncc(N[C@@H](C)c3cccc(NC(=O)c4ccc(CN5CCN(C)CC5)cc4)c3)nc2n1 [Compound 376, (S)-N-(3-(1-((2-ethyl-2H-pyrazolo[3,4-b]pyrazin-6-yl)amino)ethyl)phenyl)-4-((4-methylpiperazin-1-yl)methyl) benzamide] |
| < 300 nM | < 300 nM | CCn1cc2ncc(N[C@@H](C)c3cccc(NC(=O)c4ccc(OC(F)F)c(Cl)c4)c3)nc2n1 [Compound 450, (S)-3-chloro-4-(difluoromethoxy)-N-(3-(1-((2-ethyl-2H-pyrazolo[3,4-b]pyrazin-6-yl)amino)ethyl)phenyl)benzamide] |
| < 300 nM | 300 to 1000 nM | CCn1cc2ncc(N[C@@H](C)c3cc(NC(=O)c4cnc(NC)c(C)c4)ccc3F)nc2n1 [Compound 379, (S)-N-(3-(1-((2-ethyl-2H-pyrazolo[3,4-b]pyrazin-6-yl)amino)ethyl)-4-fluorophenyl)-5-methyl-6-(methylamino) nicotinamide] |
| < 300 nM | < 300 nM | CCn1cc2ncc(N[C@@H](C)c3cc(NC(=O)c4ccc(CN5CCOCC5)c(C)c4)ccc3C)nc2n1 [Compound 523, (S)-N-(3-(1-((2-ethyl-2H-pyrazolo[3,4-b]pyrazin-6-yl)amino)ethyl)-4-methylphenyl)-3-methyl-4-(morpholinomethyl) benzamide] |
| < 300 nM | < 300 nM | Cc1cc2ncc(N[C@@H](C)c3cc(NC(=O)c4cnn(C5CCC5)c4)ccc3F)nc2s1 [Compound 613, (S)-1-cyclobutyl-N-(4-fluoro-3-(1-((6-methylthieno[2,3-b]pyrazin-3-yl)amino)ethyl)phenyl)-1H-pyrazole-4-carboxamide] |
| < 300 nM | < 300 nM | CCn1cc2ncc(N[C@@H](C)c3cc(NC(=O)c4cnc(NC5CC5)c(C)c4)ccc3C)nc2n1 [Compound 515, (S)-6-(cyclopropylamino)-N-(3-(1-((2-ethyl-2H-pyrazolo[3,4-b]pyrazin-6-yl)amino)ethyl)-4-methylphenyl)-5-methylnicotinamide] |
| < 300 nM | < 300 nM | CCc1cc2ncc(N[C@@H](C)c3cc(NC(=O)c4ccc(C(F)(F)F)nc4)ccc3F)nc2o1 [Compound 619, (S)-N-(3-(1-((6-ethylfuro[2,3-b]pyrazin-3-yl)amino)ethyl)-4-fluorophenyl)-6-(trifluoromethyl)nicotinamide] |
| < 300 nM | 300 to 1000 nM | CCn1cc2ncc(N[C@@H](C)c3cccc(NC(=O)c4ccc(N5CCN(C)CC5)c(Cl)c4)c3)nc2n1 [Compound 361, (S)-3-chloro-N-(3-(1-((2-ethyl-2H-pyrazolo[3,4-b]pyrazin-6-yl)amino)ethyl)phenyl)-4-(4-methylpiperazin-1-yl)benzamide] |
| < 300 nM | ≥ 1000 nM | CCn1cc2ncc(N[C@@H](C)c3cccc(NC(=O)Cc4ccc5c(n4)CCCC5)c3)nc2n1 [Compound 723, (S)-N-(3-(1-((2-ethyl-2H-pyrazolo[3,4-b]pyrazin-6-yl)amino)ethyl)phenyl)-2-(5,6,7,8-tetrahydroquinolin-2-yl) acetamide] |
| < 300 nM | < 300 nM | CCn1cc2ncc(N[C@@H](C)c3cc(NC(=O)Cc4cncc(C)c4)ccc3C)nc2n1 [Compound 666, (S)-N-(3-(1-((2-ethyl-2H-pyrazolo[3,4-b]pyrazin-6-yl)amino)ethyl)-4-methylphenyl)-2-(5-methylpyridin-3-yl) acetamide] |
